In US20170340598A1, “Method of Reducing Uric Acid with Fucoxanthin-Containing Composition” (TCI Co., Ltd., priority 2016, published 2017):

Legend:
xanthine oxidase = xanthine oxidase (Homo sapiens, UniProt P47989); assay: Evaluation of the inhibition of xanthine oxidase activity; assay type: biochemical; conditions: extract extracted for 120 minutes; fucoxanthin at the same concentration as the extract
Protocol: 50 μL of the test sample, 35 μL of phosphate buffer (70 mM, pH 7.5) and 30 μL of xanthine oxidase (0.02 units/mL) were mixed and shaken, and allowed to stand at room temperature for 15 minutes. Then, 60 μL of xanthine (150 μM) was added and allowed to react at room temperature for 30 minutes; the reaction was then stopped by the addition of 100 μL of the HCl (1N), followed by measuring absorbance at 290 nm. The inhibitory effect of the test sample against xanthine oxidase activity was evaluated and compared with the control group.

[1] = system: NOS2 (inducible nitric oxide synthase) gene; assay: NOS2 gene expression in MSU-induced ADTC5 cells (qPCR); assay type: cell-based, mouse; conditions: extract 2 mg/ml, fucoxanthin 1 ppm, normalized to β-actin
Protocol: Next, the cells were treated with monosodium urate (MSU) (0.125 mg/ml, in medium) to induce uric acid crystallization. Cells were divided into three groups: Group 1 was treated with Ascophyllum nodosum extract extracted for 120 minutes (2 mg/ml, in medium); group 2 was treated with fucoxanthin (1 ppm, in medium); group 3 was untreated (the control group). […] Next, reverse transcription was performed using a SuperScript™ reverse transcription kit (Invitrogen). The NOS2 (inducible nitric oxide synthase) gene was quantified using the ABI StepOnePlus™ System (Applied Biosystems), and β-actin was used as a reference gene for normalizing each sample. It is known that accumulation of uric acid crystals in the joints causes inflammation in joint cavities, which leads to the increase of NOS2 gene expression in chondrocytes. Therefore, NOS2 gene expression levels were used to evaluate the degree of inflammation of cells caused by uric acid crystallization. […] Statistical analysis was performed by Student's t-test (Microsoft Excel software).

Sequence of xanthine oxidase (P47989 whole entry, species assumed): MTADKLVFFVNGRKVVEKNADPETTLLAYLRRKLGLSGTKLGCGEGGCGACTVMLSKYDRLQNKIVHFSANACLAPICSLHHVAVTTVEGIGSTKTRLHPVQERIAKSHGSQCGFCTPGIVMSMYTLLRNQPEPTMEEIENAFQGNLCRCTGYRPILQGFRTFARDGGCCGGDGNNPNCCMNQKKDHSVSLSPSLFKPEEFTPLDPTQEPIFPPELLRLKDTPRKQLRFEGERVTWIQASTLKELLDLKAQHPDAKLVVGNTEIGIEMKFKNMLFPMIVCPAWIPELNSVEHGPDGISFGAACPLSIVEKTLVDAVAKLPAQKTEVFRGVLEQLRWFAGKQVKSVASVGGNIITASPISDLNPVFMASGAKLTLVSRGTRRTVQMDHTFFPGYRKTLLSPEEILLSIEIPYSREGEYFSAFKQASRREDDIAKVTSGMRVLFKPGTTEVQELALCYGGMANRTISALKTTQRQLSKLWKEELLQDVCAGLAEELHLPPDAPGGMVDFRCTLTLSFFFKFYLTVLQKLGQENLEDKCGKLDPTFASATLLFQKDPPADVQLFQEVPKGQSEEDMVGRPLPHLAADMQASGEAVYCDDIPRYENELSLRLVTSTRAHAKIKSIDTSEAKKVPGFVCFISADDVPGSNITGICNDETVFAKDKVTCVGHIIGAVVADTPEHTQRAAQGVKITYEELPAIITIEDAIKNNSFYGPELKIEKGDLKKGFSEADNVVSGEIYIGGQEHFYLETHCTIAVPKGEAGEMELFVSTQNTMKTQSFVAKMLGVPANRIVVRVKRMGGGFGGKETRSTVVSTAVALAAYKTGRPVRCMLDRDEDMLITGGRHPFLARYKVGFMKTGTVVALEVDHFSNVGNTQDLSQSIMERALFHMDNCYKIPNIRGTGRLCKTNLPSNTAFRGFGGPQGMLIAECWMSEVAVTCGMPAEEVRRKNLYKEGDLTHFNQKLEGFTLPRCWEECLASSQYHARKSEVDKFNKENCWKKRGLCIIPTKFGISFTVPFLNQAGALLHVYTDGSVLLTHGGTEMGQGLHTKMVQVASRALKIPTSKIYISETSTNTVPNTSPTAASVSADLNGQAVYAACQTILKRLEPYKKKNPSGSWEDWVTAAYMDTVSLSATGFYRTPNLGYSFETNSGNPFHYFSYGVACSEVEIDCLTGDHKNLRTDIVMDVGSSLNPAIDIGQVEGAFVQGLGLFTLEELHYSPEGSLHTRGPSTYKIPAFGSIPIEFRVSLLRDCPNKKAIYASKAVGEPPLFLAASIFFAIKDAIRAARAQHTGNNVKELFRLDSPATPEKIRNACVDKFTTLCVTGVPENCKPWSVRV

inhibition rate against xanthine oxidase (xanthine oxidase): 44%
Compound: CC(=O)O[C@H]1CC(C)(C)C(=C=C/C(C)=C/C=C/C(C)=C/C=C/C=C(C)/C=C/C=C(\C)C(=O)C[C@@]23O[C@]2(C)C[C@@H](O)CC3(C)C)[C@](C)(O)C1 [fucoxanthin]
NOS2 gene expression level (MSU-induced group expressed as 1) ([1]; ADTC5 cells co-treated with MSU 0.125 mg/ml for 24 hours): 0.24
NOS2 gene expression level (MSU-induced group expressed as 1) ([1]; ADTC5 cells co-treated with MSU 0.125 mg/ml for 48 hours): 0.12
